The series can be described thus: Metabolic stability and intrinsic clearance in human liver microsomes. Particulars: pooled human liver microsomes, NADPH, 1 uM compound, 37 C; read-out: hMics CLint. In kind it is in vitro ADME. Here is the method: Human Liver Microsomes (HLM) were obtained from BD Gentest UltraPool 150 donor (Lot no. 38289) at a concentration of 20 mg/mL protein. HLMs are stored in a −80° C. freezer. Prior to use, the pooled HLM were removed from the freezer and allowed to thaw in a 37° C. water bath and then stored on wet ice. 100 μmol/L test compound solution and positive control (PC) solutions (phenacetin, verapamil, diclofenac, imiprimine, benzydamine and metoprolol) were prepared by adding 2 μL of 10 mmol/L stock solution in DMSO to 198 μL of acetonitrile. HML mixtures were prepared by adding 1325 μL of 20 mg/mL HLM to 22260 μL of phosphate buffer to obtain the HLM mixture at 1.1236 mg/mL. Prior to testing the compounds, 222.5 μL of 1.1236 mg/mL HLM mixtures and 25 μL of the 10 mM NADPH were mixed in the incubation plates on a whirly mixer for 10 seconds. The incubation plates were pre-warmed at 37° C. for 8 min. […]
Quantitative LC-MS analysis were carried out with an API 4000 (AB sciex, USA) Ultra mass spectrometer at MRM mode (MS/MS). Peak areas were determined from extracted ion chromatograms. Percent parent remaining was calculated from peak area of test compound or PC. The slope value, k, was determined by linear regression of the natural logarithm of percent parent remaining vs. incubation time curve. […]
The in vitro half-life (in vitro t1/2) was determined from the slope value: in vitro t½=−(0.693/k). […]
On the technique in general: Microsomes from liver hold many membrane-bound enzymes, among them those of drug oxidation.

This is an account of results in US12084437B2, “Halo-substituted piperidines as orexin receptor modulators” (AstraZeneca AB, priority 2016, dated 2024).

The structures appear in SMILES notation.

For the compound `C[C@@H]1CC(F)(F)CN(C(=O)c2nn(C)cc2-c2ccc(Cl)cc2)[C@@H]1CNc1cnc(C(F)(F)F)cn1` [Compound 129, (4-(4-chlorophenyl)-1-methyl-1H-pyrazol-3-yl)((2S,3R)-5,5-difluoro-3-methyl-2-(((5-(trifluoromethyl)pyrazin-2-yl)amino)methyl)piperidin-1-yl)methanone], the microsomal CLint at 1 µM is below 3 µL/min/mg. On to `Cc1nc(C(=O)N2CC(F)(F)C[C@@H](C)[C@H]2CNc2ccc(C(F)(F)F)cn2)c(-c2ccc(F)cc2)s1` [Compound 185, ((2S,3R)-5,5-difluoro-3-methyl-2-(((5-(trifluoromethyl)pyridin-2-yl)amino)methyl)piperidin-1-yl)(5-(4-fluorophenyl)-2-methylthiazol-4-yl)methanone], for which the microsomal CLint at 1 µM amounted to 29 µL/min/mg.
